These results are taken from publication PMC4306942, “Asperlones A and B, Dinaphthalenone Derivatives from a Mangrove Endophytic Fungus Aspergillus sp. 16-5C” (Marine Drugs, 2015).

The term IC50 denotes the concentration that inhibits the measured activity by half. One may read the melting point as the temperature of the solid-liquid transition.

Series [1] deals with T1, Mycobacterium tuberculosis protein tyrosine phosphatase B (MptpB) (Mycobacterium tuberculosis, UniProt I6WXK4).
T1 construct: The full-length PTPB gene was amplified from genomic DNA of the Mtb H37Rv strain; His6 (N); made in house; host or cells: Escherichia coli BL21(DH3) (so in the source)
T1 sequence (I6WXK4 whole entry, looked up): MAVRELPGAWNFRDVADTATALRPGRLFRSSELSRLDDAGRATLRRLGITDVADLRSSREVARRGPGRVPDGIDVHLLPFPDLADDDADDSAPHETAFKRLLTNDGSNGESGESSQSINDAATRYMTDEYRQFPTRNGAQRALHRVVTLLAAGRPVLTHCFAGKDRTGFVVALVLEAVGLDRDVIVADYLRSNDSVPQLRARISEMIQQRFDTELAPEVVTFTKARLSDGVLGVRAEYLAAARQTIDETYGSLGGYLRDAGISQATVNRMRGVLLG
In words: MptpB inhibition assay (RediPlate 96 EnzChek Tyrosine Phosphatase Assay kit, DiFMUP hydrolysis). It counts as biochemical. The following applies: for IC50: fluorogenic substrate DiFMUP, average of three independent experiments, read-out: IC50 against MptpB; for inhibitory activity against MptpB (in words): bioassay summary in conclusions.

With `C/C=C/C1=CC2=CC(=O)[C@@](C)(OC(=O)c3c(C)cc(O)cc3O)C(=O)C2=CO1` [Compound 6, (−)-mitorubrin], in series [1], the IC50 is 3.99 ± 0.34 µM and the “inhibitory activity against MptpB (in words)” value (“inhibitory activity” for short) is listed as “strong inhibitory activity”.

In the case of `O=C1C2=C3C(=CC(=O)c4c(O)cccc43)OC2(O)Cc2cc(O)cc(O)c21` (racemic) [Compound 1, (±)-asperlone A], in series [1], the IC50 is 4.24 ± 0.41 µM and the “inhibitory activity” value is given as “strong inhibitory activity”.

With `[Na+].[Na+].[Na+].[O]=[V]([O-])([O-])[O-]` [Positive Control, sodium orthovanadate, reference compound], the IC50 in series [1] amounted to 0.05 µM.

Consider `Cc1cc(O)cc(O)c1C(=O)O[C@]1(C)C(=O)C=C2C=C(/C=C/C(=O)O)OC=C2C1=O` [Compound 5, (−)-mitorubrinic acid], for which the IC50 in series [1] was above 50 µM.

Regarding `O=C1C2=C3C(=CC(=O)c4c(O)cc(O)cc43)OC2(O)Cc2cc(O)cc(O)c21` (racemic) [Compound 2, (±)-asperlone B], in series [1], the IC50 turned out to be 4.32 ± 0.6 µM and the “inhibitory activity” value is reported as “strong inhibitory activity”.

Molecule `Cc1c(O)c(O)cc(O)c1C(=O)O[C@]1(C)C(=O)C=C2C=C(C=CC(=O)O)OC=C2C1=O` [Compound 3, 6″-hydroxy-(R)-mitorubrinic acid] returned a melting point above 300 °C. Also, in series [1], the IC50 was above 50 µM.
